We go through 13 molecules from the NIST ThermoML archive (doi:10.1021/je400835u).

± gives the expanded uncertainty stated by the source.

The conditions of data set [1]: 100 kPa, Liquid; for viscosity: Falling or rolling sphere viscometry; for mass density: Vibrating tube method.
A short description of data set [2]: xn = mol fraction of the nth substance listed. The settings on record: 100 kPa, Liquid, x2 = 0; for viscosity: Falling or rolling sphere viscometry; for mass density: Vibrating tube method.

On to `CCCCC1CCCCC1` [butylcyclohexane], for which the viscosity – broadly, the internal friction of a fluid under shear – in data set [1] (293.15 K) is given as 1.296 ± 0.014 mPa·s; in data set [1] (298.15 K), 1.196 ± 0.013 mPa·s; in data set [1] (303.15 K), 1.107 ± 0.013 mPa·s; in data set [1] (308.15 K), 1.027 ± 0.013 mPa·s; in data set [1] (313.15 K), 0.958 ± 0.012 mPa·s. Also, the mass density – broadly, mass per unit of volume – in data set [1] (293.15 K) amounted to 799.44 ± 0.15 kg/m3; in data set [1] (298.15 K) it was 795.7 ± 0.15 kg/m3; in data set [1] (303.15 K) it was 791.95 ± 0.15 kg/m3; in data set [1] (308.15 K), 788.19 ± 0.15 kg/m3; in data set [1] (313.15 K), 784.41 ± 0.15 kg/m3.

Regarding `CCCCCCCCCC` [decane], the viscosity in data set [1] (293.15 K) stood at 0.93 ± 0.012 mPa·s; in data set [1] (298.15 K), 0.864 ± 0.012 mPa·s; in data set [1] (303.15 K) it was 0.806 ± 0.012 mPa·s; in data set [1] (308.15 K) it was 0.755 ± 0.011 mPa·s; in data set [1] (313.15 K), 0.709 ± 0.011 mPa·s. The mass density in data set [1] (293.15 K) turned out to be 730.52 ± 0.16 kg/m3; in data set [1] (298.15 K), 726.76 ± 0.16 kg/m3; in data set [1] (303.15 K) it was 722.97 ± 0.16 kg/m3; in data set [1] (308.15 K) it was 719.17 ± 0.16 kg/m3; in data set [1] (313.15 K), 715.36 ± 0.17 kg/m3.

On to `CCCCCCCCCC` [decane] + CCCCC1CCCCC1, for which the viscosity in data set [2] (293.15 K) is 0.93 ± 0.012 mPa·s; in data set [2] (298.15 K), 0.864 ± 0.012 mPa·s; in data set [2] (303.15 K), 0.806 ± 0.012 mPa·s; in data set [2] (308.15 K) it was 0.755 ± 0.011 mPa·s; in data set [2] (313.15 K) it was 0.709 ± 0.011 mPa·s. The mass density stood at 730.52 ± 0.16 kg/m3 in data set [2] (293.15 K); 726.76 ± 0.16 kg/m3 in data set [2] (298.15 K); 722.97 ± 0.16 kg/m3 in data set [2] (303.15 K); 719.17 ± 0.16 kg/m3 in data set [2] (308.15 K); 715.36 ± 0.17 kg/m3 in data set [2] (313.15 K).

As to `CCCCCCCCCCCC` [dodecane], the viscosity in data set [1] (293.15 K) was 1.5 ± 0.015 mPa·s; in data set [1] (298.15 K), 1.376 ± 0.014 mPa·s; in data set [1] (303.15 K), 1.265 ± 0.013 mPa·s; in data set [1] (308.15 K), 1.167 ± 0.013 mPa·s; in data set [1] (313.15 K), 1.081 ± 0.013 mPa·s. Also, the mass density in data set [1] (293.15 K) was 749 ± 0.16 kg/m3; in data set [1] (298.15 K), 745.38 ± 0.16 kg/m3; in data set [1] (303.15 K), 741.75 ± 0.16 kg/m3; in data set [1] (308.15 K), 738.12 ± 0.16 kg/m3; in data set [1] (313.15 K), 734.48 ± 0.16 kg/m3.

`CCCCCCCCCCCC` [dodecane] + CCCCC1CCCCC1: the viscosity was 1.5 ± 0.015 mPa·s in data set [2] (293.15 K); 1.376 ± 0.014 mPa·s in data set [2] (298.15 K); 1.265 ± 0.013 mPa·s in data set [2] (303.15 K); 1.167 ± 0.013 mPa·s in data set [2] (308.15 K); 1.081 ± 0.013 mPa·s in data set [2] (313.15 K). Also, the mass density is reported as 749 ± 0.16 kg/m3 in data set [2] (293.15 K); 745.38 ± 0.16 kg/m3 in data set [2] (298.15 K); 741.75 ± 0.16 kg/m3 in data set [2] (303.15 K); 738.12 ± 0.16 kg/m3 in data set [2] (308.15 K); 734.48 ± 0.16 kg/m3 in data set [2] (313.15 K).

`CCCCCCC` [heptane]: the viscosity in data set [1] (293.15 K) turned out to be 0.421 ± 0.01 mPa·s; in data set [1] (298.15 K) it was 0.398 ± 0.01 mPa·s; in data set [1] (303.15 K), 0.378 ± 0.01 mPa·s; in data set [1] (308.15 K) it was 0.352 ± 0.01 mPa·s; in data set [1] (313.15 K) it was 0.337 ± 0.01 mPa·s. The mass density is 683.99 ± 0.17 kg/m3 in data set [1] (293.15 K); 679.74 ± 0.18 kg/m3 in data set [1] (298.15 K); 675.41 ± 0.18 kg/m3 in data set [1] (303.15 K); 671.12 ± 0.18 kg/m3 in data set [1] (308.15 K); 666.92 ± 0.18 kg/m3 in data set [1] (313.15 K).

For the molecule `CCCCCCC` [heptane] + CCCCC1CCCCC1, the viscosity in data set [2] (293.15 K) is 0.421 ± 0.01 mPa·s; in data set [2] (298.15 K), 0.398 ± 0.01 mPa·s; in data set [2] (303.15 K), 0.378 ± 0.01 mPa·s; in data set [2] (308.15 K) it was 0.352 ± 0.01 mPa·s; in data set [2] (313.15 K), 0.337 ± 0.01 mPa·s. Also, the mass density in data set [2] (293.15 K) was determined as 683.99 ± 0.17 kg/m3; in data set [2] (298.15 K) it was 679.74 ± 0.18 kg/m3; in data set [2] (303.15 K), 675.41 ± 0.18 kg/m3; in data set [2] (308.15 K) it was 671.12 ± 0.18 kg/m3; in data set [2] (313.15 K), 666.92 ± 0.18 kg/m3.

In the case of `CCCCCCCCC` [nonane], the viscosity in data set [1] (293.15 K) is 0.725 ± 0.011 mPa·s; in data set [1] (298.15 K), 0.679 ± 0.011 mPa·s; in data set [1] (303.15 K) it was 0.639 ± 0.011 mPa·s; in data set [1] (308.15 K) it was 0.604 ± 0.011 mPa·s; in data set [1] (313.15 K), 0.572 ± 0.011 mPa·s. In addition, the mass density in data set [1] (293.15 K) stood at 717.88 ± 0.16 kg/m3; in data set [1] (298.15 K), 714 ± 0.17 kg/m3; in data set [1] (303.15 K), 710.1 ± 0.17 kg/m3; in data set [1] (308.15 K), 706.19 ± 0.17 kg/m3; in data set [1] (313.15 K) it was 702.26 ± 0.17 kg/m3.

In the case of `CCCCCCCCC` [nonane] + CCCCC1CCCCC1, the viscosity amounted to 0.725 ± 0.011 mPa·s in data set [2] (293.15 K); 0.679 ± 0.011 mPa·s in data set [2] (298.15 K); 0.639 ± 0.011 mPa·s in data set [2] (303.15 K); 0.604 ± 0.011 mPa·s in data set [2] (308.15 K); 0.572 ± 0.011 mPa·s in data set [2] (313.15 K). Besides, the mass density in data set [2] (293.15 K) is 717.88 ± 0.16 kg/m3; in data set [2] (298.15 K), 714 ± 0.17 kg/m3; in data set [2] (303.15 K), 710.1 ± 0.17 kg/m3; in data set [2] (308.15 K) it was 706.19 ± 0.17 kg/m3; in data set [2] (313.15 K), 702.26 ± 0.17 kg/m3.

As to `CCCCCCCC` [octane], the viscosity is recorded as 0.546 ± 0.011 mPa·s in data set [1] (293.15 K); 0.521 ± 0.011 mPa·s in data set [1] (298.15 K); 0.49 ± 0.011 mPa·s in data set [1] (303.15 K); 0.467 ± 0.011 mPa·s in data set [1] (308.15 K); 0.442 ± 0.011 mPa·s in data set [1] (313.15 K). The mass density in data set [1] (293.15 K) came out at 702.86 ± 0.17 kg/m3; in data set [1] (298.15 K), 698.85 ± 0.17 kg/m3; in data set [1] (303.15 K), 694.8 ± 0.17 kg/m3; in data set [1] (308.15 K) it was 690.73 ± 0.17 kg/m3; in data set [1] (313.15 K), 686.63 ± 0.17 kg/m3.

For the molecule `CCCCCCCC` [octane] + CCCCC1CCCCC1, the viscosity was 0.546 ± 0.011 mPa·s in data set [2] (293.15 K); 0.521 ± 0.011 mPa·s in data set [2] (298.15 K); 0.49 ± 0.011 mPa·s in data set [2] (303.15 K); 0.467 ± 0.011 mPa·s in data set [2] (308.15 K); 0.442 ± 0.011 mPa·s in data set [2] (313.15 K). Besides, the mass density in data set [2] (293.15 K) stood at 702.86 ± 0.17 kg/m3; in data set [2] (298.15 K), 698.85 ± 0.17 kg/m3; in data set [2] (303.15 K) it was 694.8 ± 0.17 kg/m3; in data set [2] (308.15 K) it was 690.73 ± 0.17 kg/m3; in data set [2] (313.15 K), 686.63 ± 0.17 kg/m3.

With `CCCCCCCCCCCCCC` [tetradecane], the viscosity is given as 2.329 ± 0.019 mPa·s in data set [1] (293.15 K); 2.096 ± 0.018 mPa·s in data set [1] (298.15 K); 1.898 ± 0.017 mPa·s in data set [1] (303.15 K); 1.729 ± 0.016 mPa·s in data set [1] (308.15 K); 1.584 ± 0.015 mPa·s in data set [1] (313.15 K). The mass density in data set [1] (293.15 K) amounted to 763.09 ± 0.15 kg/m3; in data set [1] (298.15 K), 759.57 ± 0.15 kg/m3; in data set [1] (303.15 K) it was 756.03 ± 0.15 kg/m3; in data set [1] (308.15 K), 752.51 ± 0.16 kg/m3; in data set [1] (313.15 K), 748.98 ± 0.16 kg/m3.

With `CCCCCCCCCCCCCC` [tetradecane] + CCCCC1CCCCC1, the viscosity is given as 2.329 ± 0.019 mPa·s in data set [2] (293.15 K); 2.096 ± 0.018 mPa·s in data set [2] (298.15 K); 1.898 ± 0.017 mPa·s in data set [2] (303.15 K); 1.729 ± 0.016 mPa·s in data set [2] (308.15 K); 1.584 ± 0.015 mPa·s in data set [2] (313.15 K). For the same molecule, the mass density in data set [2] (293.15 K) was determined as 763.09 ± 0.15 kg/m3; in data set [2] (298.15 K), 759.57 ± 0.15 kg/m3; in data set [2] (303.15 K) it was 756.03 ± 0.15 kg/m3; in data set [2] (308.15 K) it was 752.51 ± 0.16 kg/m3; in data set [2] (313.15 K) it was 748.98 ± 0.16 kg/m3.
